Measured values reported in patent US12590100B2, “Tetrahydro-spiroindoline-pyrrolopyrrole-triones inhibitors of the NRF2-β-TrCP interaction for use in the treatment of fatty liver disease” (Universidad Autonoma De Madrid, priority 2021, dated 2026).
Entries after “also recorded” stand apart in the source; their conditions may differ.

Legend:
[1] = system: C57BL/6 mice treated with LPS; assay: Inflammatory response in LPS-treated mice; type: in vivo, mouse
Description: FIG. 11. PHAR reduces the inflammatory response in LPS-treated mice. The mice were divided into 4 experimental groups (n=4). Experimental groups 1 and 3 were treated by IP route with vehicle (Tween-80+PBS, 1:13) and experimental groups 2 and 4 with 50 mg/kg of PHAR for 5 days. After the second-to-last administration of the compound, groups 3 and 4 were treated by IP route with 1 mg/kg of LPS for 24 h. Two hours after the last dose of PHAR and twenty-four hours after the administration of LPS, all the mice were sacrificed by extracting the liver protein and total RNA, A), representative immunoblots showing NRF2, HO1, and GAPDH protein levels as the liver extract loading control. B), densitometric analysis of NRF2 and HO1 protein levels of the representative immunoblots shown in (A), expressed as a ratio of NRF2/GAPDH or HO1/GAPDH. The data is depicted as means±SEM (n=4). Statistical analysis was performed with one-way ANOVA followed by the Bonferroni test to compare inter-group differences. **p<0.01; ***p<0.001 vs. vehicle. C), the mRNA levels of Il1β, Il6, and Tnfα were determined by means of qRT-PCR and normalized by means of average Gapdh, Tbp, and β-actin. The data is depicted as mean±SEM (n=4). Statistical analysis was performed with one-way ANOVA followed by the Bonferroni test to check inter-group differences. ***p<0.001 vs. LPS. D) Representative images of hematoxylin and eosin (H&E) staining of mouse liver and immunohistochemical F4/80 staining of inflammatory liver macrophages (Kupffer cells).
To that end, 16 wild-type C57BL/6 mice were divided into 4 experimental groups: vehicle (experimental group 1), PHAR (experimental group 2), LPS (3), and LPS+PHAR (4). After obtaining results as promising as those described in detail in Example 1.6, the inventors decided to carry out the same experimental protocol. Briefly, the mice were treated daily by IP route with 50 mg/kg of PHAR (experimental groups 2 and 4) or vehicle (groups 1 and 3). Two hours after the second-to-last administration, experimental groups 3 and 4 were treated by IP route with […] of LPS. Lastly, the last dose of PHAR was administered on the last day and 24 h after the administration of LPS, all the mice were sacrificed by extracting the liver protein and total RNA.

Raw264.7 cells = assay: Inflammatory response in LPS-stimulated Raw264.7 cells; type: cell-based, mouse; conditions: Raw264.7, PHAR 10 μM 8 h pretreatment
Description: FIG. 7. […] Serum-deprived Raw264.7 cells were pretreated with 10 μM of PHAR for 8 h. 0.1% DMSO was used as a vehicle. After that period of time, the cells were treated with 100 ng/ml of LPS for the indicated times. A), representative immunoblots of NRF2, HO1, p65, pre-IL1β, COX2, NOS2, and GAPDH as a loading control. The black arrow tip marks the specific band of p65 and NOS2. B), densitometric analysis of HO1 and NRF2 protein levels of the representative immunoblots of (A), expressed as a ratio of protein/GAPDH levels. The data is depicted as means±SEM (n=3). Statistical analysis was performed with two-way ANOVA followed by the Bonferroni test to compare inter-group differences. ***p<0.001 vs LPS. C), Densitometric analysis of pre-IL1β, COX2, and NOS2 protein levels of the representative immunoblots of (A), expressed as a ratio of protein/GAPDH levels. The data is depicted as means±SEM (n=3). Statistical analysis was performed with two-way ANOVA followed by the Bonferroni test to compare inter-group differences. ***p<0.001 vs. LPS. D) and E), the mRNA levels of Il1β, Cox2, Nos2, Il6, and Tnfα were determined by means of qRT-PCR and normalized by means of average Gapdh, Tbp, and β-actin. The data is depicted as mean±SEM (n=3). Statistical analysis was performed with two-way ANOVA followed by the Bonferroni test to check inter-group differences. ***p<0.001 vs. LPS. […] The cells were then stimulated with LPS (100 ng/ml, 1, 2, or 4 h) to trigger an inflammatory response.

[2] = mice, IP 50 mg/kg PHAR daily for 5 days

O=C1[C@@H]2[C@H](Cc3c[nH]c4ccccc34)N[C@]3(C(=O)Nc4ccc(Cl)cc43)[C@@H]2C(=O)N1c1ccc2c(c1)OCCO2 [PHAR]
inflammatory activation of hepatic macrophages (Kupffer cells), F4/80 immunostaining ([1]; LPS+PHAR-treated versus LPS-treated mice): reduction in F4/80 staining; also recorded: greatly attenuated | liver mRNA of pro-inflammatory cytokines (Il1β, Il6, Tnfα) ([1]; LPS-treated mice, prior IP 50 mg/kg PHAR): significant reduction in the production of said cytokines | liver HO-1 levels [1, 2]: induction mediated by the compound could be clearly seen | liver NRF2 levels [1, 2]: increase in NRF2 levels | liver structure (H&E) ([1]; mice, IP 50 mg/kg PHAR for 5 days): remains unaltered | liver NRF2 and HO-1 levels with combined treatment PHAR+LPS ([1]; mice, IP 50 mg/kg PHAR for 5 days plus LPS 24 h): synergistic effect | Il6 and Tnfa induction (Raw264.7 cells; LPS 100 ng/ml): significantly milder induction | NRF2 and HO-1 levels (Raw264.7 cells; LPS 100 ng/ml): increased NRF2 and HO-1 levels | inflammatory parameters by immunoblot (pre-IL1β, COX2, NOS2) or mRNA (Il1β, Cox2, Nos2) (Raw264.7 cells; LPS 100 ng/ml 4 h): mitigated the increase in inflammatory parameters
